Experimental data as given in patent US12692238B2, “Substituted pyridazinone herbicides” (FMC CORPORATION, priority 2020, dated 2026).

Key:
Assay type in all cases: in vivo
[1] = tested on: barnyardgrass (Echinochloa crus-galli); test: Test A preemergence, barnyardgrass; settings: 10 days
Excerpt: (§1) Seeds of plant species selected from barnyardgrass (Echinochloa crus-galli), blackgrass (Alopecurus myosuroides), corn (Zea mays), foxtail, giant (giant foxtail, Setaria faberi), foxtail, green (green foxtail, Setaria viridis), goosegrass (Eleusine indica), kochia (Bassia scoparia), oat, wild (wild oat, Avena fatua), palmer amaranth (pigweed, palmer, Amaranthus palmeri), redroot pigweed (Amaranthus retroflexus), ragweed (common ragweed, Ambrosia artemisiifolia), ryegrass, Italian (Italian ryegrass, Lolium multiflorum), and soybean (Glycine max) were planted into a blend of loam soil and sand and treated preemergence with a directed soil spray using test chemicals formulated in a non-phytotoxic solvent mixture which included a surfactant.
(§2) At the same time, plants selected from these crop and weed species and also wheat (Triticum aestivum), galium (catchweed bedstraw, Galium aparine) and horseweed (Erigeron canadensis) were planted in pots containing the same blend of loam soil and sand and treated with postemergence applications of test chemicals formulated in the same manner. Plants ranged in height from 2 to 10 cm and were in the one- to two-leaf stage for the postemergence treatment. Treated plants and untreated controls were maintained in a greenhouse for 10 days, after which time all treated plants were compared to untreated controls and visually evaluated for injury. Plant response ratings, summarized in Table A, are based on a 0 to 100 scale where 0 is no effect and 100 is complete control. A dash (-) response means no test result.

[2] = tested on: foxtail, green (green foxtail, Setaria viridis); test: Test A preemergence, foxtail, green; settings: 0 to 100 scale, 10 days
Excerpt: as §1, §2

kochia (Bassia scoparia) [3] = test: Test A preemergence, kochia; settings: 0 to 100 scale, 10 days
Excerpt: as §1, §2

[4] = tested on: redroot pigweed (Amaranthus retroflexus); test: Test A preemergence, redroot pigweed; settings: 0 to 100 scale, 10 days
Excerpt: as §1, §2

[5] = tested on: ragweed (common ragweed, Ambrosia artemisiifolia); test: Test A preemergence, ragweed; settings: 0 to 100 scale, 10 days
Excerpt: as §1, §2

[6] = tested on: ryegrass, Italian (Italian ryegrass, Lolium multiflorum); test: Test A preemergence, ryegrass, Italian; settings: 0 to 100 scale, 10 days
Excerpt: as §1, §2

[7] = tested on: barnyardgrass (Echinochloa crus-galli); test: Test A postemergence, barnyardgrass; settings: 10 days
Excerpt: as §1, §2

[8] = tested on: blackgrass (Alopecurus myosuroides); test: Test A postemergence, blackgrass; settings: 10 days
Excerpt: as §1, §2

corn (Zea mays) = test: Test A postemergence, corn; settings: 10 days
Excerpt: as §1, §2

[9] = tested on: foxtail, green (green foxtail, Setaria viridis); test: Test A postemergence, foxtail, green; settings: 10 days
Excerpt: as §1, §2

kochia (Bassia scoparia) [10] = test: Test A postemergence, kochia; settings: 10 days
Excerpt: as §1, §2

[11] = tested on: redroot pigweed (Amaranthus retroflexus); test: Test A postemergence, redroot pigweed; settings: 10 days
Excerpt: as §1, §2

[12] = tested on: ragweed (common ragweed, Ambrosia artemisiifolia); test: Test A postemergence, ragweed; settings: 10 days
Excerpt: as §1, §2

[13] = tested on: ryegrass, Italian (Italian ryegrass, Lolium multiflorum); test: Test A postemergence, ryegrass, Italian; settings: 10 days
Excerpt: as §1, §2

[14] = tested on: wheat (Triticum aestivum); test: Test A postemergence, wheat; settings: 10 days
Excerpt: as §1, §2

[15] = tested on: galium (catchweed bedstraw, Galium aparine); test: Test A postemergence, galium; settings: 10 days
Excerpt: as §1, §2

[16] = tested on: barnyardgrass (Echinochloa crus-galli); test: Test B flooded paddy test, barnyardgrass; settings: 250 g ai/ha, Flood; visually evaluated after 10 to 14 days
Method: (§3) Plant species in the flooded paddy test selected from barnyardgrass (Echinochloa crus-galli), ducksalad (Heteranthera limosa), rice (Oryza sativa), and sedge, umbrella (small-flower umbrella sedge, Cyperus difformis) were grown to the 2-leaf stage for testing. At time of treatment, test pots were flooded to 3 cm above the soil surface, treated by application of test compounds directly to the paddy water, and then maintained at that water depth for the duration of the test. Treated plants and controls were maintained in a greenhouse for 10 to 14 days, after which time all species were compared to controls and visually evaluated. Plant response ratings, summarized in Table B, are based on a scale of 0 to 100 where 0 is no effect and 100 is complete control. A dash (-) response means no test result.

[17] = tested on: ducksalad (Heteranthera limosa); test: Test B flooded paddy test, ducksalad; settings: 250 g ai/ha, Flood; visually evaluated after 10 to 14 days
Method: as §3

rice (Oryza sativa) = test: Test B flooded paddy test, rice; settings: 250 g ai/ha, Flood; visually evaluated after 10 to 14 days
Method: as §3

[18] = tested on: sedge, umbrella (small-flower umbrella sedge, Cyperus difformis); test: Test B flooded paddy test, sedge, umbrella; settings: 250 g ai/ha, Flood; visually evaluated after 10 to 14 days
Method: as §3

[19] = 125 g ai/ha, 0 to 100 scale (0 no effect, 100 complete control)
[20] = Postemergence, 31 g ai/ha, 0 to 100 scale
[21] = Postemergence, 125 g ai/ha, 0 to 100 scale
[22] = 31 g ai/ha, postemergence, 0 to 100 scale (0 no effect, 100 complete control)

Compound | Plant response rating, Barnyardgrass ([1]; 31 g ai/ha, 0 to 100 scale) | Plant response rating, Barnyardgrass [1, 19] | Plant response rating, Foxtail, Green ([2]; 31 g ai/ha) | Plant response rating, Foxtail, Green ([2]; 125 g ai/ha) | Plant response rating, Kochia (kochia (Bassia scoparia) [3]; 31 g ai/ha) | Plant response rating, Kochia (kochia (Bassia scoparia) [3]; 125 g ai/ha) | Plant response rating, Pigweed, Redroot ([4]; 31 g ai/ha) | Plant response rating, Pigweed, Redroot ([4]; 125 g ai/ha) | Plant response rating, Ragweed ([5]; 31 g ai/ha) | Plant response rating, Ragweed ([5]; 125 g ai/ha) | Plant response rating, Ryegrass, Italian ([6]; 31 g ai/ha) | Plant response rating, Ryegrass, Italian ([6]; 125 g ai/ha) | Plant response rating, Barnyardgrass [7, 21] | Plant response rating, Blackgrass [8, 21] | Plant response rating, Corn (corn (Zea mays); [21]) | Plant response rating, Foxtail, Green [9, 22] | Plant response rating, Foxtail, Green [9, 21] | Plant response rating, Kochia (kochia (Bassia scoparia) [10]; [22]) | Plant response rating, Kochia (kochia (Bassia scoparia) [10]; [21]) | Plant response rating, Pigweed, Redroot [11, 22] | other results
Cc1ccc2ccc(F)cc2c1-c1c(OCOC(=O)C(C)(C)C)c(Cl)nn(C)c1=O [Compound 4] | 10 | 100 | 70 | 100 | 20 | 100 | 100 | 100 | 100 | 100 | 90 | 100 | 60 | 70 | 0 | 40 | 80 | 10 | 40 | 70 | Plant response rating, Barnyardgrass [7, 20]: 20; Plant response rating, Blackgrass [8, 20]: 20; Plant response rating, Corn (corn (Zea mays); [20]): 0; Plant response rating, Pigweed, Redroot [11, 21]: 100; Plant response rating, Ragweed [12, 22]: 50; Plant response rating, Ragweed [12, 21]: 100; Plant response rating, Ryegrass, Italian [13, 22]: 50; Plant response rating, Ryegrass, Italian [13, 21]: 90; Plant response rating, Wheat [14, 22]: 40; Plant response rating, Wheat [14, 21]: 70; Plant response rating, Galium [15, 22]: 70; Plant response rating, Galium [15, 21]: 100; Plant response rating, Barnyardgrass (0 to 100 scale where 0 is no effect and 100 is complete control) [16]: 75; Plant response rating, Ducksalad (0 to 100 scale where 0 is no effect and 100 is complete control) [17]: 95; Plant response rating, Rice (0 to 100 scale where 0 is no effect and 100 is complete control) (rice (Oryza sativa)): 35; Plant response rating, Sedge, Umbrella (0 to 100 scale where 0 is no effect and 100 is complete control) [18]: 95
Cc1ccc2ccccc2c1-c1c(OCOC(=O)C(C)C)c(Cl)nn(C)c1=O [Compound 6] | 0 | 0 | 0 | 50 | 10 | 50 | 90 | 100 | 10 | 80 | 20 | 70 | 50 | 40 | 0 | 0 | 60 | 10 | 60 | 60 | Plant response rating, Barnyardgrass [7, 20]: 20; Plant response rating, Blackgrass [8, 20]: 0; Plant response rating, Corn (corn (Zea mays); [20]): 0; Plant response rating, Pigweed, Redroot [11, 21]: 100; Plant response rating, Ragweed [12, 22]: 70; Plant response rating, Ragweed [12, 21]: 80; Plant response rating, Ryegrass, Italian [13, 22]: 50; Plant response rating, Ryegrass, Italian [13, 21]: 70; Plant response rating, Wheat [14, 22]: 0; Plant response rating, Wheat [14, 21]: 10; Plant response rating, Galium [15, 22]: 70; Plant response rating, Galium [15, 21]: 90; Plant response rating, Barnyardgrass (0 to 100 scale where 0 is no effect and 100 is complete control) [16]: 10; Plant response rating, Ducksalad (0 to 100 scale where 0 is no effect and 100 is complete control) [17]: 70; Plant response rating, Rice (0 to 100 scale where 0 is no effect and 100 is complete control) (rice (Oryza sativa)): 0; Plant response rating, Sedge, Umbrella (0 to 100 scale where 0 is no effect and 100 is complete control) [18]: 75
Cc1cc(Cl)c2ccc(F)cc2c1-c1c(OCOC(=O)C(C)(C)C)c(C)nn(C)c1=O [Compound 30] | 0 | 80 | 20 | 100 | 20 | 20 | 80 | 100 | 80 | 90 | 100 | 100 | 50 | 80 | 10 | 30 | 80 | 10 | 30 | 80 | Plant response rating, Barnyardgrass [7, 22]: 20; Plant response rating, Blackgrass [8, 22]: 40; Plant response rating, Corn (corn (Zea mays); [22]): 0; Plant response rating, Pigweed, Redroot [11, 21]: 90; Plant response rating, Ragweed [12, 22]: 20; Plant response rating, Ragweed [12, 21]: 100; Plant response rating, Ryegrass, Italian [13, 22]: 80; Plant response rating, Ryegrass, Italian [13, 21]: 100; Plant response rating, Wheat [14, 22]: 20; Plant response rating, Wheat [14, 21]: 60; Plant response rating, Galium [15, 22]: 100; Plant response rating, Galium [15, 21]: 100; Plant response rating, Barnyardgrass (0 to 100 scale where 0 is no effect and 100 is complete control) [16]: 40; Plant response rating, Ducksalad (0 to 100 scale where 0 is no effect and 100 is complete control) [17]: 75; Plant response rating, Rice (0 to 100 scale where 0 is no effect and 100 is complete control) (rice (Oryza sativa)): 35; Plant response rating, Sedge, Umbrella (0 to 100 scale where 0 is no effect and 100 is complete control) [18]: 100
Cc1ccc2ccccc2c1-c1c(OCOC(=O)C(C)(C)C)c(Cl)nn(C)c1=O [Compound 7] | 50 | 90 | 60 | 100 | 10 | 70 | 100 | 100 | 50 | 90 | 50 | 90 | 80 | 30 | 10 | 10 | 70 | 30 | 70 | 80 | Plant response rating, Barnyardgrass [7, 20]: 10; Plant response rating, Blackgrass [8, 20]: 0; Plant response rating, Corn (corn (Zea mays); [20]): 10; Plant response rating, Pigweed, Redroot [11, 21]: 90; Plant response rating, Ragweed [12, 22]: 70; Plant response rating, Ragweed [12, 21]: 90; Plant response rating, Ryegrass, Italian [13, 22]: 50; Plant response rating, Ryegrass, Italian [13, 21]: 70; Plant response rating, Wheat [14, 22]: 0; Plant response rating, Wheat [14, 21]: 50; Plant response rating, Galium [15, 22]: 70; Plant response rating, Galium [15, 21]: 90; Plant response rating, Barnyardgrass (0 to 100 scale where 0 is no effect and 100 is complete control) [16]: 0; Plant response rating, Ducksalad (0 to 100 scale where 0 is no effect and 100 is complete control) [17]: 0; Plant response rating, Rice (0 to 100 scale where 0 is no effect and 100 is complete control) (rice (Oryza sativa)): 0; Plant response rating, Sedge, Umbrella (0 to 100 scale where 0 is no effect and 100 is complete control) [18]: 0
